Assay results: the supplement of paper PMC10307832

How the values were obtained:
Experiment in all cases: relative viability (nuclei count vs DMSO), 5 days (fraction); higher = more cells survive
[1] = compound: COc1cc2nc(N3CCCN(C)CC3)nc(NC3CCN(Cc4ccccc4)CC3)c2cc1OC + COc1cc2c(Oc3ccc(NC(=O)C4(C(=O)Nc5ccc(F)cc5)CC4)cc3F)ccnc2cc1OCCCN1CCOCC1 [Foretinib] (partner 0.25 µM)
Procedure, shortened: (§1)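 One day after seeding in 1536-well plates, lung cancer cell lines were dosed by pin tool. Dosing was either single-drug or a fixed anchor-drug dose plus five library-drug doses (not always all listed) in √10 steps. After 5 days, nuclei were stained in one fix-and-stain step and counted on 4× images, and relative viability is the nuclei count of treated wells over that of vehicle wells, given as the median of duplicate plates.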

AZD6482 + Trametinib = compound: Cc1cc([C@@H](C)Nc2ccccc2C(=O)O)c2nc(N3CCOCC3)cc(=O)n2c1 [AZD6482] + CC(=O)Nc1cccc(-n2c(=O)n(C3CC3)c(=O)c3c(Nc4ccc(I)cc4F)n(C)c(=O)c(C)c32)c1 [Trametinib] (partner 0.02 µM)
Procedure, shortened: as §1

AZD6482 + Navitoclax = compound: Cc1cc([C@@H](C)Nc2ccccc2C(=O)O)c2nc(N3CCOCC3)cc(=O)n2c1 [AZD6482] + CC1(C)CCC(c2ccc(Cl)cc2)=C(CN2CCN(c3ccc(C(=O)NS(=O)(=O)c4ccc(N[C@H](CCN5CCOCC5)CSc5ccccc5)c(S(=O)(=O)C(F)(F)F)c4)cc3)CC2)C1 [Navitoclax] (partner 0.5 µM)
Procedure, shortened: as §1

[2] = compound: COc1cc2nc(N3CCCN(C)CC3)nc(NC3CCN(Cc4ccccc4)CC3)c2cc1OC + O=C(CCCCCCC(=O)Nc1ccccc1)NO [Vorinostat] (partner 1 µM)
Procedure, shortened: as §1

| Cell Line | relative viability ([1]; first compound 0.2 µM) | relative viability ([1]; first compound 0.6325 µM) | relative viability ([1]; first compound 2 µM) | relative viability ([1]; first compound 6.325 µM) | relative viability (AZD6482 + Trametinib; first compound 0.08 µM) | relative viability (AZD6482 + Trametinib; first compound 0.253 µM) | relative viability (AZD6482 + Trametinib; first compound 0.8 µM) | relative viability (AZD6482 + Trametinib; first compound 2.53 µM) | relative viability (AZD6482 + Trametinib; first compound 8 µM) | relative viability (AZD6482 + Navitoclax; first compound 0.08 µM) | relative viability (AZD6482 + Navitoclax; first compound 0.253 µM) | relative viability (AZD6482 + Navitoclax; first compound 0.8 µM) | relative viability (AZD6482 + Navitoclax; first compound 2.53 µM) | relative viability (AZD6482 + Navitoclax; first compound 8 µM) | relative viability ([2]; first compound 0.2 µM) | relative viability ([2]; first compound 0.6325 µM) | relative viability ([2]; first compound 2 µM) | relative viability ([2]; first compound 6.325 µM) |
| --- | --- | --- | --- | --- | --- | --- | --- | --- | --- | --- | --- | --- | --- | --- | --- | --- | --- | --- |
| 201T | 1.13 | 1.08 | 1.09 | 1.11 | 0.694 | 0.698 | 0.704 | 0.653 | 0.708 | 1.22 | 1.17 | 1.19 | 1.12 | 1.17 | 0.968 | 0.983 | 0.952 | 0.939 |
| A549 | 0.951 | 0.966 | 0.997 | 0.763 |  |  |  |  |  | 1.07 | 1.25 | 1.06 | 0.607 | 0.961 |  |  |  |  |
| A-427 | 0.918 | 0.977 | 1.13 | 1.09 | 0.628 | 0.783 | 0.691 | 0.548 | 0.612 | 0.861 | 0.903 | 0.916 | 0.757 | 0.947 | 0.865 | 0.827 | 0.882 | 0.851 |
| ABC-1 | 1.04 | 1.35 | 1.32 | 0.996 |  |  |  |  |  |  |  |  |  |  | 0.959 | 1.23 | 1.13 | 0.917 |
| BEN | 0.908 | 0.786 | 0.91 | 0.972 | 0.898 | 0.947 | 1.02 | 0.866 | 0.817 | 0.058 | 0.0744 | 0.0638 | 0.0645 | 0.178 | 0.608 | 0.54 | 0.636 | 0.552 |
| CAL-12T | 1.01 | 1.15 | 1.38 | 0.941 | 0.308 | 0.276 | 0.234 | 0.185 | 0.302 | 1.13 | 1.29 | 1.29 | 0.648 | 1.23 | 0.558 | 0.626 | 0.925 | 0.767 |
| COR-L23 | 1.02 | 0.95 | 0.965 | 0.996 | 0.553 | 0.598 | 0.652 | 0.403 | 0.521 | 0.711 | 1.02 | 1.23 | 0.756 | 0.857 | 0.536 | 0.406 | 0.561 | 0.286 |
| COR-L 105 | 1.06 | 1.27 | 1.13 | 0.921 | 0.378 | 0.451 | 0.46 | 0.383 | 0.423 | 0.78 | 0.648 | 0.747 | 0.521 | 0.633 | 0.805 | 1.04 | 0.728 | 0.595 |
| Calu-6 | 0.867 | 0.865 | 0.983 | 0.903 |  |  |  |  |  | 0.662 | 0.699 | 0.754 | 0.57 | 0.602 |  |  |  |  |
| ChaGo-K-1 | 1 | 0.929 | 0.941 | 0.907 | 0.922 | 0.874 | 0.878 | 0.803 | 0.857 | 1.09 |  | 1.18 | 0.986 | 1.1 | 0.784 | 0.749 | 0.779 | 0.717 |
| EBC-1 | 0.1 | 0.117 | 0.114 | 0.107 |  |  |  |  |  | 0.273 | 0.318 | 0.322 | 0.191 | 0.241 |  |  |  |  |
| EKVX | 0.754 | 0.814 | 0.986 | 0.794 | 0.293 | 0.291 | 0.286 | 0.242 | 0.203 | 0.817 | 0.868 | 0.786 | 0.535 | 0.57 | 0.703 | 0.721 | 0.541 | 0.722 |
| EMC-BAC-2 | 0.956 | 0.973 | 1.05 | 1.01 | 0.841 | 0.956 | 0.893 | 0.667 | 0.706 | 1.09 | 1.08 | 1.12 | 0.916 | 0.971 | 0.431 | 0.427 | 0.448 | 0.508 |
| EPLC-272H | 0.783 | 0.723 | 0.847 | 0.686 | 0.251 | 0.213 | 0.27 | 0.234 | 0.194 | 0.943 |  | 0.994 | 0.896 | 0.775 | 0.423 | 0.4 | 0.38 | 0.335 |
| H3255 | 0.857 | 0.812 | 0.981 | 1.05 | 0.604 | 0.551 | 0.575 | 0.402 | 0.367 | 0.501 | 0.523 | 0.352 | 0.314 | 0.243 | 0.77 | 0.796 | 0.858 | 0.772 |
| HARA | 0.973 | 0.9 | 0.92 | 0.92 | 0.538 | 0.496 | 0.453 | 0.336 | 0.352 | 1.11 | 1.16 | 1.13 |  | 1.16 | 0.584 | 0.63 | 0.515 | 0.51 |
| HCC-15 | 1.1 | 1 | 1.06 | 0.853 | 0.356 | 0.348 | 0.33 | 0.271 | 0.273 | 0.666 | 0.616 | 0.626 | 0.515 | 0.523 | 0.85 | 0.884 | 0.909 | 0.81 |
